Assay results as given in patent US7807368B2, “Cyclin-dependent kinase inhibitors as targets for opiod growth factor treatment” (priority 2006, dated 2010).

Test system: SCC-1 cells
Assay: siRNA knockdown of OGFr, growth of SCC-1 cells
Assay type: cell-based, human
Details: 10^-6 M; for depression of growth: 96 h
Protocol: siRNA knockdown of OGFr. […] For transfection, 5×10^4 cells per well were seeded in 6-well plates containing 1 ml of serum-containing media without antibiotics. In each well, 20 nM OGFr-siRNA or control siRNA solutions in serum-free media were added. Cells were incubated for 4 h at 37° C. prior to the addition of OGF. Cultures were incubated an additional 20 h, and then 1 ml fresh complete media either lacking or containing OGF was added. […] Two independent experiments were conducted. The control siRNAs were purchased from Ambion.

## [Met^5]-enkephalin [OGF]
SCC-1 cells subjected to OGFr-siRNA
  effect on growth of OGFr-siRNA cultures: no further effects
Control siRNA-treated SCC-1 cells
  depression of growth: 46%
Wt SCC-1 cells
  depression of growth: 29%
